# Source: patent US20200297670A1, “Capsaicin Sequential Dosing Method for Treatment of Morton's Neuroma Pain” (Centrexion Therapeutics Corporation, priority 2016, published 2020)
# Tested on: pain due to an intermetatarsal neuroma
# Experiment: Average walking pain due to intermetatarsal neuroma on Numeric Pain Rating Scale (NPRS) after two injected doses of trans-capsaicin
# Format: in vivo, human
# Settings: for reduction in patients' reported average walking pain due to the intermetatarsal neuroma (NPRS): 27 adult human patients
# Procedure: Twenty-seven adult, human patients experiencing pain due to an intermetatarsal neuroma were treated by administering a first dose of trans-capsaicin (200 μg of trans-capsaicin) and then, after at least 11 weeks, administered a second dose of trans-capsaicin (200 μg of trans-capsaicin). Patients rated their average walking pain due to the intermetatarsal neuroma on a Numeric Pain Rating Scale (NPRS), where pain is characterized by the patient on a scale of zero to ten (with zero being “no pain”, and ten being “worst possible pain”). Patients rated their average walking pain due to the intermetatarsal neuroma on (i) just prior to receiving the injection of trans-capsaicin and (ii) four (4) weeks after receiving each injection of trans-capsaicin. Patients reported a reduction in average walking pain due to the intermetatarsal neuroma when measured at four weeks after injection of trans-capsaicin for each administration of trans-capsaicin.
# trans-Capsaicin was administered to twenty-seven (27) adult, human patients experiencing pain due to an intermetatarsal neuroma according to the procedures described below. Prior to administering the first dose of trans-capsaicin in this study, patients reported an average walking pain due to the intermetatarsal neuroma of at least four on the Numeric Pain Rating Scale (NPRS). Patients received two doses of trans-capsaicin.
# trans-Capsaicin was injected in the amount of 200 μg per dose by ultrasound-guided needle placement into the area of the neuroma (but not inserting the needle into the intermetatarsal neuroma itself). The dose of trans-capsaicin was injected as a 2 mL solution containing trans-capsaicin at a concentration of 100 μg/mL. […]
# Pain due to the intermetatarsal neuroma was evaluated by having patients rate their average walking pain due to the intermetatarsal neuroma on a Numeric Pain Rating Scale (NPRS), where pain is characterized by the patient on a scale of zero to ten (with zero being “no pain”, and ten being “worst possible pain”). […]
structure (smiles),measurement,setting,value
"COc1cc(CNC(=O)CCCCC=CC(C)C)ccc1O [trans-capsaicin, N-[(4-hydroxy-3-methoxyphenyl)methyl]-8-methylnon-6-enamide]",reduction in patients' reported average walking pain due to the intermetatarsal neuroma (NPRS),"first dose 200 μg trans-capsaicin injected into area of neuroma, four weeks after injection vs prior to first dose",1.6 point
same,reduction in patients' reported average walking pain due to the intermetatarsal neuroma (NPRS),"second dose 200 μg trans-capsaicin (83 to 196 days after first dose), four weeks after injection vs just prior to second dose",2.3 point
same,effect of repeat injection on pain due to an intermetatarsal neuroma,"repeat injection, 200 μg per dose, adult human patients",effective in ameliorating pain
